According to patent EP0464233A1, “Pharmaceutical combinations against malaria” (priority 1990, dated 1992):
Like-named read-outs stand apart in the source and are kept apart here.

System: P. berghei NS (resistant to chlorquine)
Test: 4-day suppressive test (blood schizontocidal activity), chess-board / isobologram analysis
Assay type: in vivo, Plasmodium berghei
Settings: for group mean of parasitaemia as of control: male Swiss mice, D + 4, ± standard error; for parasitaemia: Arteether alone, male mouse, Table II (extended doses); for ED50 / ED90: Plasmodium berghei, in Mus musculus, po
Description: The evaluation of blood schizontocidal activities was carried out following the procedure described herein after using the Chloroquine-resistant strain of P. berghei (NS) strain. (Chawira A. N., et al. 1987, Trans, R. Soc. Trop. Med. Hyg. 81 : 554-558).
The methodology followed in the present study was adopted form "4- day suppressive test" (ref. Peters, W.; 1987, Chemotherapy and Drug Resistance in Malaria, Vol. 1, p 111). The experimental data has been analysed by Chess Board Method in the form of an isobologram, (Ref. Chawira A. N., and Warhurst D. C.; 1987, J. Trop. Med. Hyg. 90 : 1-8). ED₅₀ and ED₉₀ was determined using a log-probit method.
Host .. Swiss Mice (20-22 gms) Sex .. Male Parasit .. P. berghei NS (resistant to chlorquine) Route of Infection .. Intravenous Route of drug Administration .. per os
Artheether : A few drops of Kardi oil and Tween^R 80 were added to Arteether to make a paste, followed by 0.5 % Tylose^R (Carboxy methyl cellulose) solution. A homogenous suspension was prepared using a tissue homogenizer in Teflon^R coated glass tube. […] Mefloquine HCl : A solution was prepared in 0.5 % Tylose using a tissue homogenizer.
Drug was administered as follows: (+ 2 H, 24 H, 48 H, 72 H) Each day one dose for 4 days
Slides were drawn from individual mouse and stained with Giemsa on D + 4. The slides were examined under oil immersion lens and parasitaemia was recorded from 15 fields at random. The average of infected and uninfected erythrocytes was determined for each animal. Finally the average parasitaemia of the whole group was determined and considered as 100 % for comparison purposes with the treated group.
At least 5000 to 7500 erythrocytes were examined at random to determine the parasitaemia. In certain cases, where parasitaemia was extremely low 10000 to 15000 erythrocytes were examined.

SMILES | group mean of parasitaemia as of control (Arteether 0.25 mg/kg X 4, p.o., no Quinine) | group mean of parasitaemia as of control (Arteether 0.5 mg/kg X 4, p.o., no Quinine) | group mean of parasitaemia as of control (Arteether 1.0 mg/kg X 4, p.o., no Quinine) | group mean of parasitaemia as of control (Arteether 2.0 mg/kg X 4, p.o., no Quinine) | parasitaemia (Dose 2.0 mg/kg X 4) | parasitaemia (Dose 3.0 mg/kg X 4) | parasitaemia (Dose 4.0 mg/kg X 4) | parasitaemia (Dose 5.0 mg/kg X 4) | ED50 [mg/kg] | ED90 [mg/kg] | ED50 (read-out: ED50 of Arteether) [mg/kg] | ED90 (read-out: ED90 of Arteether) [mg/kg] | ED50 (read-out: ED50 of Quinine) [mg/kg] | ED90 (read-out: ED90 of Quinine) [mg/kg] | group mean of parasitaemia as of control (Quinine 25 mg/kg X 4, p.o., no Arteether) | group mean of parasitaemia as of control (Quinine 37.5 mg/kg X 4, p.o., no Arteether) | group mean of parasitaemia as of control (Quinine 50 mg/kg X 4, p.o., no Arteether)
CCO[C@H]1O[C@@H]2O[C@@]3(C)CC[C@H]4[C@H](C)CC[C@@H]([C@H]1C)[C@@]24OO3 [Arteether] | 90 ± 13.9 | 87 ± 10.8 | 84 ± 10.8 | 77 ± 1.27 | 82 | 57 | 25 | 12 | 2.8 | 5.2 | 2.8 | 5.2 |  |  |  |  | 
C=C[C@H]1C[N@@]2CC[C@H]1C[C@H]2[C@H](O)c1ccnc2ccc(OC)cc12 [Quinine] |  |  |  |  |  |  |  |  |  |  |  |  | 61 | 110 | 92 ± 2.36 | 85 ± 5.8 | 70 ± 11.8
